In patent publication US20250154554A1, “ANTIMICROBIAL SUSCEPTIBILITY” (priority 2022, published 2025):
Counter-ions that a name gives are not always drawn. Like-named read-outs stand apart in the source and are kept apart here.

Columns and labels:
K. pneumoniae = assay: MIC of strains giving very major errors (VME); format: cell-based
Method: (§1) For Colistin (on gram-negative bacteria) and vancomycin (in the case of Staphylococcus), the method used to determine the antimicrobial susceptibility was broth microdilution [5]. […] Standard methodologies were performed from the same inoculum used to spike the blood cultures. Quality control of the reference methods was also performed according to the recommendations of EUCAST and CLSI.
(§2) Positive blood cultures were spiked in blood agar and colonies identified and submitted to antimicrobial susceptibility assay according reference disk diffusion method and/or to MIC values determined by microdilution. The results were analysed using the most recent EUCAST breakpoint tables and the M100 (29th ed.) breakpoint tables from CLSI.

E. cloacae = assay: MIC of strains giving very major errors (VME); format: cell-based
Method: as §1, §2

[1] = tested on: Gram-negative bacteria (Enterobacterales, Pseudomonas, Acinetobacter); details: for RM I (strains intermediate by reference method) / RM R (strains resistant by reference method) / RM S (strains susceptible by reference method): total of 3 sites, blood cultures; for CLSI RM I / EUCAST RM I: number of strains I; for CLSI RM R / EUCAST RM R: number of strains resistant; for CLSI RM S / EUCAST RM S: number of strains susceptible
Method: as §1
(§3) All the strains were classified as S, I or R according the reference methods. MIC was determined for vancomycin and colistin. The presence of ESBL on Enterobacterales group I, together with the screening for ESBL on Enterobacterales group II, and the screening for AmpC and presence of carbapenemases according EUCAST protocol for detection of mechanisms of resistance were also performed.
as §2

K. aerogenes = assay: MIC of strains giving very major errors (VME); format: cell-based; details: strain EB 069, site 2
Method: as §1, §2

Enterobacterales = assay: Broth microdilution MIC of meropenem for screening of carbapenemases; format: cell-based; details: the 2 strains found false negative in the carbapenemase screening
Method: Standard methodologies were performed from the same inoculum used to spike the blood cultures. Quality control of the reference methods was also performed according to the recommendations of EUCAST and CLSI.

fungi = details: by cell membrane lesions; reference [13]; cited from earlier work
bacteria = details: by cell membrane lesions; reference [14]; cited from earlier work
S. aureus = assay: MIC of strains giving very major errors (VME); format: cell-based; details: strain ST 099, site 2
Method: as §1, §2

[2] = tested on: Gram-positive bacteria (Staphylococcus spp, Enterococcus spp); assay: Reference method (RM): disk diffusion and/or broth microdilution, S/I/R classification, Gram-positive strains; format: cell-based; details: for CLSI RM R / EUCAST RM R: number of strains resistant; for CLSI RM S / EUCAST RM S: number of strains susceptible;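 as to all read-outs here: susceptibility categories assigned with the latest EUCAST breakpoint tables or CLSI M100 29th edition breakpoints, with quality control of the reference methods following EUCAST and CLSI guidance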
Method: as §1, §3, §2

E. coli = assay: MIC of strains giving very major errors (VME); format: cell-based; details: strain EB 718, site 1
Method: as §1, §2

[3] = CLSI, FASTinov, Porto, spiked on blood cultures
[4] = CLSI, Hospital Ramon et Cajal, Madrid, patients' blood cultures
[5] = EUCAST, FASTinov, Porto, spiked on blood cultures
[6] = EUCAST, Hospital Ramon et Cajal, Madrid, patients' blood cultures
[7] = EUCAST, Hospital S. João, Porto, patients' blood cultures
[8] = CLSI, Hospital S. João, Porto, patients' blood cultures
[9] = CLSI, FASTinov, Porto, spiked blood cultures
[10] = CLSI, total of 3 sites, blood cultures
[11] = EUCAST, FASTinov, Porto, spiked blood cultures
[12] = EUCAST, total of 3 sites, blood cultures
[13] = CLSI, Hospital Ramon et Cajal, Madrid, patients blood cultures
[14] = EUCAST, Hospital Ramon et Cajal, Madrid, patients blood cultures

CC(C)(O/N=C(\C(=O)N[C@@H]1C(=O)N2C(C(=O)[O-])=C(C[n+]3ccccc3)CS[C@H]12)c1csc(N)n1)C(=O)O [Ceftazidime]
MIC (K. pneumoniae; Klebsiella pneumoniae, strain EB 033, site 2, read-out: MIC): 32 µg/mL | MIC (E. cloacae; Enterobacter cloacae, strain EB 1168, site 1): 32 µg/mL | RM I (strains intermediate by reference method) ([1]; CLSI): 4 | RM R (strains resistant by reference method) ([1]; CLSI): 115 | RM S (strains susceptible by reference method) ([1]; CLSI): 194 | RM I (strains intermediate by reference method) ([1]; EUCAST): 34 | RM R (strains resistant by reference method) ([1]; EUCAST): 119 | RM S (strains susceptible by reference method) ([1]; EUCAST): 159 | CLSI RM I [1, 3]: 3 | CLSI RM I [1, 4]: 1 | EUCAST RM I [1, 5]: 29 | EUCAST RM I [1, 6]: 3 | EUCAST RM I [1, 7]: 2 | CLSI RM R [1, 3]: 94 | CLSI RM R [1, 4]: 13 | CLSI RM R [1, 8]: 8 | EUCAST RM R [1, 5]: 98 | EUCAST RM R [1, 6]: 15 | EUCAST RM R [1, 7]: 6 | CLSI RM S [1, 3]: 56 | CLSI RM S [1, 4]: 64 | CLSI RM S [1, 8]: 74 | EUCAST RM S [1, 5]: 26 | EUCAST RM S [1, 6]: 60 | EUCAST RM S [1, 7]: 73 | MIC (K. aerogenes; Klebsiella aerogenes): 16 µg/mL

C[C@@H](O)[C@H]1C(=O)N2C(C(=O)O)=C(S[C@@H]3CN[C@H](C(=O)N(C)C)C3)[C@H](C)[C@H]12 [Meropenem]
MIC (Enterobacterales): 0.5 µg/mL | MIC (K. pneumoniae; Klebsiella pneumoniae, strain EB 021, site 2, read-out: MIC): 16 µg/mL | RM I (strains intermediate by reference method) ([1]; CLSI): 5 | RM R (strains resistant by reference method) ([1]; CLSI): 10 | RM S (strains susceptible by reference method) ([1]; CLSI): 217 | RM R (strains resistant by reference method) ([1]; EUCAST): 9 | RM S (strains susceptible by reference method) ([1]; EUCAST): 223 | CLSI RM I [1, 3]: 5 | CLSI RM R [1, 3]: 7 | CLSI RM R [1, 4]: 3 | EUCAST RM R [1, 5]: 6 | EUCAST RM R [1, 6]: 3 | CLSI RM S [1, 3]: 69 | CLSI RM S [1, 4]: 72 | CLSI RM S [1, 8]: 76 | EUCAST RM S [1, 5]: 75 | EUCAST RM S [1, 6]: 72 | EUCAST RM S [1, 7]: 76

CN(C)CCCOc1nn(Cc2ccccc2)c2ccccc12 [benzydamine hydrochloride]
killing of fungi (fungi): rapidly kills | killing of bacteria (bacteria): rapidly kills

Penicillin
MIC (S. aureus): 0.25 µg/mL | RM R (strains resistant by reference method) [2, 9]: 82 | RM S (strains susceptible by reference method) [2, 9]: 49 | RM R (strains resistant by reference method) [2, 10]: 209 | RM S (strains susceptible by reference method) [2, 10]: 94 | RM R (strains resistant by reference method) [2, 11]: 28 | RM S (strains susceptible by reference method) [2, 11]: 7 | RM R (strains resistant by reference method) [2, 12]: 56 | RM S (strains susceptible by reference method) [2, 12]: 19 | CLSI RM R [2, 13]: 53 | CLSI RM R [2, 8]: 74 | EUCAST RM R [2, 14]: 10 | EUCAST RM R [2, 7]: 18 | CLSI RM S [2, 13]: 15 | CLSI RM S [2, 8]: 30 | EUCAST RM S [2, 14]: 2 | EUCAST RM S [2, 7]: 10

Piperacillin-tazobactam
MIC (K. pneumoniae; strain EB 101, site 1): 64 µg/mL | MIC (mg/L) (E. cloacae; strain EB 123, site 1): 64/4 | RM I (strains intermediate by reference method) ([1]; CLSI): 13 | RM R (strains resistant by reference method) ([1]; CLSI): 95 | RM S (strains susceptible by reference method) ([1]; CLSI): 237 | RM I (strains intermediate by reference method) ([1]; EUCAST): 51 | RM R (strains resistant by reference method) ([1]; EUCAST): 86 | RM S (strains susceptible by reference method) ([1]; EUCAST): 177 | CLSI RM I [1, 3]: 6 | CLSI RM I [1, 4]: 7 | EUCAST RM I [1, 5]: 49 | EUCAST RM I [1, 6]: 2 | CLSI RM R [1, 3]: 87 | CLSI RM R [1, 4]: 2 | CLSI RM R [1, 8]: 6 | EUCAST RM R [1, 5]: 71 | EUCAST RM R [1, 6]: 9 | EUCAST RM R [1, 7]: 6 | CLSI RM S [1, 3]: 90 | CLSI RM S [1, 4]: 71 | CLSI RM S [1, 8]: 76 | EUCAST RM S [1, 5]: 33 | EUCAST RM S [1, 6]: 69 | EUCAST RM S [1, 7]: 75 | MIC (mg/L) (E. coli): >128/4 | MIC (mg/L) (K. aerogenes): 64/4
